Measured values taken from PubChem BioAssay (NCI).
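Cells were grown in 96-well plates and exposed to each compound for 48 hours at five concentrations; endpoints were interpolated linearly between bracketing concentrations, or set to the highest concentration if not reached. Here, GI50 denotes the concentration required for 50% inhibition of growth. TGI denotes the concentration required for complete inhibition of growth.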 Where a SMILES comes first, the peptide text is derived from it. [ ]: non-standard residue; d: D form. Phe(4-Cl) = N[CH](Cc1ccc(Cl)cc1)C(=O)O

Experiments:
Experiment in all cases: NCI-60 cell line screen, 48 h
[1] = system: HOP-62 NSCLC
[2] = system: SR leukemia
[3] = system: TK-10 renal
[4] = system: K-562 leukemia
[5] = system: OVCAR-8 ovarian
[6] = system: SK-OV-3 ovarian
[7] = system: SK-MEL-5 melanoma
[8] = system: ACHN renal
[9] = system: OVCAR-4 ovarian
[10] = system: NCI/ADR-RES ovarian

With `Cc1ccc2nc3c(C(=O)NCCN(C)C)cccc3nc2c1` the TGI [1] was 14 µM, the TGI [2] was > 100 µM and the TGI [3] was > 66 µM. For the same molecule, the TGI [4] was 9.27 µM, the TGI [5] was > 42.2 µM and the TGI [6] was > 56.3 µM. For the same molecule, the TGI [7] was > 39.8 µM, the TGI [8] was 14.9 µM and the TGI [9] was 15.2 µM.
For `CC1(n2nc(-c3ccccc3)n(-c3ccccc3)c2=O)CSC1`, the TGI [1] was > 100 µM, the TGI [2] was > 100 µM and the TGI [3] was > 100 µM. The TGI [4] was > 100 µM, the TGI [5] was > 100 µM and the TGI [6] was > 100 µM. The TGI [7] was > 100 µM, the TGI [8] was > 100 µM and the TGI [9] was > 100 µM.
In the case of `NCCCC[C@@H]1NC(=O)[C@H]2CCCN2C(=O)[C@H](Cc2ccccc2)NC(=O)[C@H](Cc2ccccc2)CNC1=O`, the GI50 [1] is reported as > 100 µM, the TGI [1] is reported as > 100 µM and the GI50 [10] is reported as > 100 µM. For the same molecule, the TGI [10] was > 100 µM, the GI50 [3] was > 100 µM and the TGI [3] was > 100 µM. The GI50 [4] was > 100 µM, the TGI [4] was > 100 µM and the GI50 [5] was > 100 µM. The TGI [5] was > 100 µM, the GI50 [6] was > 100 µM and the TGI [6] was > 100 µM. For the same molecule, the GI50 [7] was > 100 µM, the TGI [7] was > 100 µM and the GI50 [8] was > 100 µM. For the same molecule, the TGI [8] was > 100 µM, the GI50 [9] was > 100 µM and the TGI [9] was > 100 µM.
`Clc1nc(Cl)c2ncn(Cc3cccc(COc4cccc(OCc5cccc(Cn6cnc7c(Cl)nc(Cl)nc76)c5)c4)c3)c2n1` was tested, and the GI50 [1] was 58.2 µM, the TGI [1] was > 100 µM and the GI50 [10] was 53.1 µM. The TGI [10] was > 100 µM, the GI50 [3] was 37.5 µM and the TGI [3] was > 100 µM. For the same molecule, the GI50 [4] was 71.9 µM, the TGI [4] was > 100 µM and the GI50 [5] was 24.7 µM. For the same molecule, the TGI [5] was > 100 µM, the GI50 [6] was > 100 µM and the TGI [6] was > 100 µM. The GI50 [7] was 9.76 µM, the TGI [7] was 46.1 µM and the GI50 [8] was 54.5 µM. For the same molecule, the TGI [8] was > 100 µM, the GI50 [9] was 32 µM and the TGI [9] was > 100 µM.
In the case of `Cn1cc(C(=O)c2ccccc2)ccc1=O`, the TGI [1] is reported as > 100 µM, the TGI [2] is reported as > 100 µM and the TGI [3] is reported as > 100 µM. The TGI [4] was > 100 µM, the TGI [5] was > 100 µM and the TGI [6] was > 100 µM. For the same molecule, the TGI [7] was > 100 µM, the TGI [8] was > 100 µM and the TGI [9] was > 100 µM.
With `Cc1noc(C)c1CCCOC1COc2ccccc2OCCOCCOc2ccccc2OC1` the TGI [1] was > 100 µM, the TGI [3] was > 100 µM and the TGI [4] was > 100 µM. For the same molecule, the TGI [5] was > 100 µM, the TGI [6] was > 100 µM and the TGI [7] was > 100 µM. The TGI [8] was > 100 µM and the TGI [9] was > 100 µM.
For `CC(=O)[CH-]C(=O)c1ccccc1.CC(=O)[CH-]C(=O)c1ccccc1.O=C([O-])c1ccc([O-])cc1.O=C([O-])c1ccc([O-])cc1.[Ti+4]`, the GI50 [1] was 35.1 µM, the TGI [1] was > 100 µM and the GI50 [4] was 33.5 µM. For the same molecule, the TGI [4] was > 100 µM, the GI50 [5] was 46.5 µM and the TGI [5] was > 100 µM. The GI50 [6] was > 100 µM, the TGI [6] was > 100 µM and the GI50 [7] was 43.9 µM. For the same molecule, the TGI [7] was > 100 µM, the GI50 [8] was 75 µM and the TGI [8] was > 100 µM. For the same molecule, the GI50 [9] was 57.1 µM and the TGI [9] was > 100 µM.
With `CC(C)(C)OC(=O)Cc1ccc2c(ccn2Cc2ccccc2)c1` the TGI [1] was > 100 µM, the TGI [3] was > 100 µM and the TGI [4] was > 100 µM. For the same molecule, the TGI [5] was > 100 µM, the TGI [6] was > 100 µM and the TGI [7] was > 100 µM. The TGI [8] was > 100 µM and the TGI [9] was > 100 µM.
In the case of `Nc1ccc(/C=C/c2ccnc3ccccc23)cc1`, the TGI [1] is reported as 41.5 µM, the TGI [2] is reported as 32.4 µM and the TGI [3] is reported as 57.7 µM. It also gave a TGI [4] of 44 µM, a TGI [5] of 88.2 µM and a TGI [7] of 29.6 µM. For the same molecule, the TGI [8] was > 100 µM and the TGI [9] was > 100 µM.
`COc1cc(NC(=O)c2cc(O)c(CC=C(C)C)c(O)c2)cc2c1O[C@]1(C)CC[C@@H](O)C(C)(C)[C@H]1C2` showed a GI50 [1] of 5.2 µM, a TGI [1] of 30.9 µM and a GI50 [10] of 37 µM. For the same molecule, the TGI [10] was > 100 µM, the GI50 [3] was 9.59 µM and the TGI [3] was 55.6 µM. It also gave a GI50 [4] of 3.58 µM, a TGI [4] of 34.1 µM and a GI50 [5] of 6.34 µM. The TGI [5] was 33.7 µM, the GI50 [6] was 4.72 µM and the TGI [6] was 28.8 µM. It also gave a GI50 [7] of 1.51 µM, a TGI [7] of 3.61 µM and a GI50 [8] of 5.38 µM. For the same molecule, the TGI [8] was 48.7 µM, the GI50 [9] was 7.52 µM and the TGI [9] was > 100 µM.
Molecule `CCCCCCCCCCCCCC1CCC(CC)N1` (stereo unspecified) has a TGI [1] of 17.9 µM, a TGI [2] of 40.6 µM and a TGI [3] of 32 µM. The TGI [4] was 33.3 µM, the TGI [5] was 39.1 µM and the TGI [6] was 30.7 µM. It also gave a TGI [7] of 31.8 µM, a TGI [8] of 17.4 µM and a TGI [9] of 31.2 µM.
In the case of `N.N.N.N.N.O=C([O-])c1nn[n-]n1.[Cl-].[Co+3]`, the GI50 [1] is reported as > 100 µM, the TGI [1] is reported as > 100 µM and the GI50 [2] is reported as > 100 µM. The TGI [2] was > 100 µM, the GI50 [3] was > 100 µM and the TGI [3] was > 100 µM. For the same molecule, the GI50 [4] was > 100 µM, the TGI [4] was > 100 µM and the GI50 [5] was > 100 µM. For the same molecule, the TGI [5] was > 100 µM, the GI50 [6] was > 100 µM and the TGI [6] was > 100 µM. For the same molecule, the GI50 [7] was > 100 µM, the TGI [7] was > 100 µM and the GI50 [8] was > 100 µM. For the same molecule, the TGI [8] was > 100 µM, the GI50 [9] was > 100 µM and the TGI [9] was > 100 µM.
For `COc1ccc2c(c1)C=C([N+](=O)[O-])C(C1OC(C)(C)OC1C1COC(C)(C)O1)O2` (stereo unspecified), the TGI [1] was 37.4 µM, the TGI [2] was 6.93 µM and the TGI [3] was 32.4 µM. It also gave a TGI [4] of 4.88 µM, a TGI [5] of 11.4 µM and a TGI [6] of 24.2 µM. It also gave a TGI [7] of 9.17 µM, a TGI [8] of 6.53 µM and a TGI [9] of 21.3 µM.
`O=C(CCl)Nc1ccc(Cl)cc1` gave a GI50 [1] of 2.01 µM, a TGI [1] of 3.91 µM and a GI50 [10] of 2.8 µM. It also gave a TGI [10] of 8.96 µM, a GI50 [3] of 2.3 µM and a TGI [3] of 5.75 µM. The GI50 [5] was 4.6 µM, the TGI [5] was > 100 µM and the GI50 [6] was 6.93 µM. The TGI [6] was 23 µM, the GI50 [7] was 1.71 µM and the TGI [7] was 3.16 µM. The GI50 [8] was 3.13 µM, the TGI [8] was 10.6 µM and the GI50 [9] was 5.68 µM. The TGI [9] was 25.3 µM.
For `Fc1cc(F)c(COc2cc(Cn3cnc4c(Cl)nc(Cl)nc43)ccc2C23CC4CC(CC(C4)C2)C3)cc1F`, the GI50 [1] was 17.4 µM, the TGI [1] was 31.2 µM and the GI50 [10] was 18.3 µM. It also gave a TGI [10] of 37.1 µM, a GI50 [3] of 17.1 µM and a TGI [3] of 31.1 µM. For the same molecule, the GI50 [5] was 18 µM, the TGI [5] was 38.4 µM and the GI50 [6] was 22 µM. The TGI [6] was 43.3 µM, the GI50 [7] was 1.68 µM and the TGI [7] was 3.53 µM. It also gave a GI50 [8] of 17.1 µM, a TGI [8] of 30.8 µM and a GI50 [9] of 19.5 µM. The TGI [9] was 44 µM.
With `CN(C)P(=O)(/C(N)=N/Nc1ccc([N+](=O)[O-])cc1)N(C)C` the TGI [1] was > 100 µM, the TGI [2] was > 100 µM and the TGI [3] was > 100 µM. The TGI [4] was > 100 µM, the TGI [5] was > 100 µM and the TGI [7] was > 100 µM. The TGI [8] was > 100 µM and the TGI [9] was > 100 µM.
`CC(O)C(NC(=O)C(Cc1ccccc1)NC(=O)C(NC(=O)C(CCCCN)NC(=O)C(Cc1c[nH]c2ccccc12)NC(=O)C(Cc1ccc(O)cc1)NC(=O)C(Cc1ccc(Cl)cc1)NC(=O)C(N)Cc1ccccc1)C(C)O)C(N)=O` (stereo unspecified) (H-F[Phe(4-Cl)]YWKTFT-NH2; configuration not given here) gave a TGI [1] of 38.5 µM, a TGI [4] of 28.9 µM and a TGI [5] of 67.5 µM. It also gave a TGI [6] of 46.4 µM, a TGI [8] of 40.9 µM and a TGI [9] of 58.7 µM.
